Here are results for 48 compounds from US12187722B2, “Small molecule inhibitors of TEAD transcription factors” (The General Hospital Corporation, priority 2019, dated 2025).

SMILES strings stand for the structures. Where “and” joins values, the source holds several entries; their conditions need not be identical. Equal entries are not always repeated.

This assay addresses TEAD2 (Homo sapiens (Human), UniProt Q15562). Kind of assay: In vitro palmitoylation (TEAD2 autopalmitoylation, streptavidin blot). In kind it is biochemical. The following applies: compound at 10 μM. As to the method: Recombinant GST-TEAD2 or His6TEAD2 (500 ng) protein was pre-incubated with the compounds at indicated concentrations for 15 min. and then incubated with 1 μM of alkyne palmitoyl-5 CoA (Cayman Chemical) for 30 min or 50 mM MES, pH 6.4, followed by Click reaction with biotin-azide as previously described (Zheng, B. et al., J. Am. Chem. Soc., 2013, 135, 7082-7085). Click reaction was performed with 100 μM biotin-azide, 1 mM tris(2-carboxyethyl) phosphine hydrochloride (TCEP), 100 μM tris[(1-benzyl-1H-1,2,3-triazol-4-yl) methyl] amine (TBTA) and 1 mM CuSO4 for 1 h at RT.
The reactions were terminated by the addition of 12 μL of 6×SDS-sample loading buffer (50 mM Tris-HCl, pH 6.8, 6% SDS, 48% Glycerol, 0.03% Bromophenol Blue, 30 mM EDTA, 9% MeSH). Samples were analysed by SDS-PAGE and Western blot was performed by probing with streptavidin HRP and histidine HRP antibodies independently. Bands intensity obtained from streptavidin blot were quantified using BIORAD, Gel doc system and the percentage of inhibition of Tead2 auto palmitoylation is determined by comparing to the DMSO control treated samples.
These compounds were tested for activity in inhibiting TEAD2 palmitoylation in the assay described above.

Chain of TEAD2 (Q15562 whole entry): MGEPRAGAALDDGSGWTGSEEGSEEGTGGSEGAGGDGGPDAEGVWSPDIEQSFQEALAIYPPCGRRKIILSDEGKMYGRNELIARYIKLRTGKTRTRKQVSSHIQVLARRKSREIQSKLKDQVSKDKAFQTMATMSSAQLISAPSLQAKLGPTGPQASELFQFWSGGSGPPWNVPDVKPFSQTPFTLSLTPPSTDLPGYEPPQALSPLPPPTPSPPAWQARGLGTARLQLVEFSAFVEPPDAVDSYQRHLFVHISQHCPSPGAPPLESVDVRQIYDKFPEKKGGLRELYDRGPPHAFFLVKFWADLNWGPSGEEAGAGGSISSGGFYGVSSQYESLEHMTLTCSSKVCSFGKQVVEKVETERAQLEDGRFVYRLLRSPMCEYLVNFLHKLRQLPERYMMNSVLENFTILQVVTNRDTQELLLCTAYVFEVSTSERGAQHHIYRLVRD

On to `O=C(O)c1cccnc1Nc1cccc(C23CC4CC(CC(C4)C2)C3)c1` [Compound 96], for which the inhibition (usually the share of the control response that was lost under treatment) at 10 µM (Table 2) is 96%.
In the case of `CN(c1ccc(Nc2ccc(C34CC5CC(CC(C5)C3)C4)cc2)cc1)c1ccccc1C(=O)O` [Compound 165], under “Table 2”, the “% of inhibition of TEAD2 palmitoylation at 10 μM” value worked out at 85%.
`O=C(O)Cn1ccc2ccc(Nc3ccc(C45CC6CC(CC(C6)C4)C5)cc3Cl)cc21` [Compound 126] displayed an inhibition at 10 µM (Table 2) of 86%.
For `O=C(O)C1CNCC1Nc1ccc(Nc2ccc(C34CC5CC(CC(C5)C3)C4)cc2Cl)cc1` (stereo not drawn) [Compound 93], the inhibition at 10 µM (Table 2) came out at 72%.
`COc1cccc2c1S(=O)(=O)N=C2Nc1ccc(C23CC4CC(CC(C4)C2)C3)cc1` [Compound 19]: for the setting “Table 2”, the inhibition at 10 µM turned out to be 35%.
On to `CN(c1ccc(Nc2cccc(C(=O)O)n2)cc1)c1ccc(C(F)(F)F)cc1` [CP-648], for which 10 µM produced 89% inhibition (Table 3).
For `CN(C(=O)c1ccc(Nc2ccc(C34CC5CC(CC(C5)C3)C4)cc2)cc1)c1ccccc1C(=O)O` [Compound 221], for the setting “Table 2”, the inhibition at 10 µM was 61%.
Same read-out and setting: in the case of `CC12CC3CC(C)(C1)CC(c1ccc(NC(=O)c4ccc(Nc5cccc(C(=O)O)n5)cc4)cc1)(C3)C2` [Compound 227] it was 58%.
Take `CNCc1ccc(Nc2ccc(N(C)c3ccc(C4CCCCC4)cc3)cc2C)c(C(=O)O)c1` [CP-637]: the inhibition at 10 µM (Table 3) came out at 5%.
Under “Table 2”, `O=C(O)c1cccc(Nc2ccc(S(=O)(=O)Nc3ccc(C45CC6CC(CC(C6)C4)C5)cc3)cc2)n1` [Compound 194] had an inhibition at 10 µM of 20%.
In the case of `O=C(Nc1ccc(C23CC4CC(CC(C4)C2)C3)cc1)c1ccc(Oc2ccccc2C(=O)O)cc1` [Compound 215], where the note is “Table 2”, the inhibition at 10 µM turned out to be 87%.
For `CN(C(=O)c1ccc(Nc2ccccc2C(=O)O)cc1)c1ccc(C23CC4CC(CC(C4)C2)C3)cc1` [Compound 192], at 10 µM the inhibition (Table 2) was 99%.
On the same count and under the same terms, in the case of `CN(c1ccc(S(=O)(=O)N(C)c2ccc(C34CC5CC(CC(C5)C3)C4)cc2)cc1)c1ncccc1C(=O)O` [Compound 231] it was 0%; in that of `O=C(O)c1cccnc1Nc1ccc(Nc2cccc(C34CC5CC(CC(C5)C3)C4)c2)cc1` [Compound 104], 80%.
On the same count and under the same terms, in the case of `O=C(Nc1ccc(C23CC4CC(CC(C4)C2)C3)cc1)c1cccc(Nc2ncccc2C(=O)O)c1` [Compound 234] it was 64%.
`O=C(Nc1ccc(C2CCCCC2)cc1Cl)c1cccc(Nc2ccc(OC3CC3)cc2C(=O)O)c1` [CP-672]: under “Table 3”, the inhibition at 10 µM is 55%.
Turning to `O=C(O)c1cccnc1Nc1ccc(Nc2ccc(C34CC5CC(CC(C5)C3)C4)cc2Cl)nc1` [Compound 91], at 10 µM the inhibition (Table 2) was 97%.
On the same count and under the same terms, in the case of `O=C(O)[C@@H]1CCCN1C(=O)Nc1ccc(Nc2ccc(C34CC5CC(CC(C5)C3)C4)cc2Cl)cc1` [Compound 50] it was 0%; in that of `O=C(Nc1ccccc1C(=O)O)c1ccc(Nc2ccc(C34CC5CC(CC(C5)C3)C4)cc2Br)cc1` [Compound 228], 89%; in that of `CCCCN(c1ccccc1)c1ccc(Nc2ccc(Nc3ncccc3C(=O)O)cc2)c(Cl)c1` [Compound 259], 83%.
`O=C(O)c1cncc(Nc2ccc(Nc3ccc(C45CC6CC(CC(C6)C4)C5)cc3Cl)cc2)c1` [Compound 116] yielded an inhibition at 10 µM (Table 2) of 91%.
The same measure, in the same setting: in the case of `CC(C)COc1ccc(Nc2ccc(N(C)c3ccc(C45CC6CC(CC(C6)C4)C5)cc3)cc2)c(C(=O)O)c1` [CP-453] it was 0%; in that of `O=C(O)c1cccn1Cc1ccc(Nc2ccc(C34CC5CC(CC(C5)C3)C4)cc2Cl)cc1` [Compound 124], 86%; in that of `O=C(O)C1CCCC1Nc1ccc(Nc2ccc(C34CC5CC(CC(C5)C3)C4)cc2Cl)cc1` (stereo not drawn) [Compound 39], 59%.
For the setting “Table 2”, `CN(c1ccc(OCC23CC4CC(CC(C4)C2)C3)cc1)c1ccc(N(C)c2ccccc2C(=O)O)cc1` [Compound 208] came in with an inhibition at 10 µM of 100%.
In the case of `COc1ccc(Nc2ccc(N(C)c3ccc(C(F)(F)F)cc3)cc2)c(C(N)=O)c1` [CP-605], the inhibition at 10 µM (Table 3) is 47%.
For `O=C(O)c1cn(Cc2cccc(Nc3ccc(C45CC6CC(CC(C6)C4)C5)cc3Cl)c2)cn1` [Compound 127], at 10 µM the inhibition (Table 2) was 27%.
`Cc1cc(Nc2ccc(C3CCCCC3)cc2)ccc1C(=O)Nc1cccc(C(=O)O)c1` [CP-649] returned an inhibition at 10 µM (Table 3) of 99%.
Regarding `O=C(O)c1ccccc1Nc1cccc(S(=O)(=O)Nc2ccc(C34CC5CC(CC(C5)C3)C4)cc2)c1` [Compound 246], for the setting “Table 2”, the inhibition at 10 µM amounted to 99%.
`COC(=O)c1ccccc1Nc1ccc(C(=O)Nc2ccc(C34CC5CC(CC(C5)C3)C4)cc2)cc1` [Compound 4]: the inhibition at 10 µM (Table 2) worked out at 0%.
`Clc1cc(C23CC4CC(CC(C4)C2)C3)ccc1Nc1ccc(Nc2ccccn2)cc1` [Compound 10] showed an inhibition at 10 µM (Table 2) of 0%.
Regarding `O=C(O)c1cc(C(F)(F)F)ccc1Nc1cc(Nc2ccc(C34CC5CC(CC(C5)C3)C4)cc2)cc(C(F)(F)F)c1` [Compound 29], at 10 µM the inhibition (Table 2) was 90%.
As to `O=C(O)c1cccc(Nc2cccc(C(=O)Nc3ccc(C45CC6CC(CC(C6)C4)C5)cc3)c2)c1` [Compound 235], the inhibition at 10 µM (Table 2) is 84%.
On to `CN(c1ccc(Nc2cccc(C(=O)O)n2)cc1)c1ccc(C23CC4CC(CC(C4)C2)C3)cc1` [Compound 193], for which testing at 10 µM (Table 2) gave an inhibition of 86%.
The compound `COc1ccc(Nc2ccc(N(C)c3ccc(SC(F)(F)F)cc3)cc2)c(C(=O)O)c1` [CP-622] returned an inhibition at 10 µM (Table 3) of 94%.
On to `CCCCN(c1ccccc1)c1ccc(Nc2ccc(Nc3ccccc3C(=O)O)cc2)c(Cl)c1` [Compound 258], for which the inhibition at 10 µM (Table 2) stood at 0%.
In turn, `COc1ccc(Nc2ccc(N(C)c3ccc(C45CC6CC(CC(C6)C4)C5)cc3)cc2)c(CO)c1` [CP-516] registered an inhibition at 10 µM (Table 3) of 20%.
On to `O=C(O)c1cccnc1Nc1cccc(Nc2ccc(C3CCCCC3)cc2Cl)c1` [CP-677], for which, where the note is “Table 3”, the inhibition at 10 µM was determined as 96%.
For the compound `COc1ccc(Nc2ccc(N(C)c3ccc(C(F)(F)F)cc3)cc2)c(C(=O)N(C)C)c1` [CP-607], under “Table 3”, the inhibition at 10 µM came out at 37%.
For the compound `CC(C)c1ccccc1Cc1cccc(Nc2ncccc2C(=O)O)c1` [Compound 113], the inhibition at 10 µM (Table 2) amounted to 100%.
For the setting “Table 3”, `COc1ccc(Nc2ccc(N(C)c3ccccc3OC)cc2)c(C(=O)O)c1` [CP-545] returned an inhibition at 10 µM of 6%.
For `O=C(O)c1ccccc1Nc1cc(F)cc(Nc2ccc(C34CC5CC(CC(C5)C3)C4)cc2)c1` [Compound 30], at 10 µM the inhibition (Table 2) was 91%.
For the setting “Table 3”, `COc1ccc(Nc2ccc(Oc3ccc(C45CC6CC(C)(CC(C)(C6)C4)C5)cc3Cl)cc2C)c(C(=O)O)c1` [CP-564] had an inhibition at 10 µM of 89%.
As for `CCCCN(c1ccccc1)c1ccc(N(C)c2ccc(N(C)c3ccccc3C(=O)O)cc2)cc1` [Compound 187], where the note is “Table 2”, the inhibition at 10 µM was found to be 57%.
Take `CN(c1ccc(Oc2ccc(C34CC5CC(CC(C5)C3)C4)cc2)cc1)c1ccccc1C(=O)O` [Compound 155]: the inhibition at 10 µM (Table 2) turned out to be 99%.
In turn, `Cc1cc(N(C)c2ccc(C3CCCCC3)cc2)ccc1Nc1ccc(C2CC2)cc1C(=O)O` [CP-630] had an inhibition at 10 µM (Table 3) of 39%.
In the case of `O=C(O)c1ccccc1Nc1ccc(Oc2ccc(C34CC5CC(CC(C5)C3)C4)cc2Cl)cc1` [Compound 166], under “Table 2”, the inhibition at 10 µM is 98%.
With `O=C(Nc1ccc(C23CC4CC(CC(C4)C2)C3)cc1Cl)c1cccc(Nc2ccccc2C(=O)O)c1` [Compound 242], the “% of inhibition of TEAD2 palmitoylation at 10 μM” value (Table 2) was 35% and 58%.
